Assay results from patent publication US9428452B2, “Compounds” (Glaxo Group Limited, priority 2012, dated 2016).

What was measured:
[1] = test system: IL-17A secreted from antiCD3/CD28 stimulated Peripheral Blood Mononuclear cells (PBMC); assay: Peripheral Blood Mononucleocyte Cell Assay (PBMC Assay - IL-17); type: cell-based; details: Homo sapiens, 48 h, IL-17A release, read-out: mean pIC50 (converted)
Protocol: Peripheral Blood Mononucleocvte Cell Assay (PBMC Assay—IL-17) […]
This assay is designed to measure levels of IL-17A secreted from antiCD3/CD28 stimulated frozen Peripheral Blood Mononuclear cells (PBMC) isolated from human blood with the aim of identifying inhibitors of IL-17A release.
2. The compounds for screening are dispensed into a master plate at 10 mM top concentration which are serially diluted 1:3 across 11 points in DMSO, then 500 nL is transferred into a 384-well flat-bottomed Greiner plate to which 50 uL of cell suspension is added: for the single shot screening the highest concentration of compound is 10^−5M; for 11 point full curve dose response studies the highest concentration is 10^−4 M.
As a low control, DMSO (as supplied, for example, by VWR) (final concentration 1%) in column 6 (16 points).
As a high control, 5-(4-fluorophenyl)-2-ureidothiophene-3-carboxamide (obtainable from, for example, Sigma) at a final concentration of 10^−4 M in DMSO should be used in column 18 (16 points).
9. Make the cell suspension at the concentration 8×10^5 cells/mL to give a final number of 40,000 cells/well.
1. Add well mixed CD3/CD28 Dynabeads (as supplied, for example, by Dynal) to achieve ratio bead:cell=2:1 (ie. a dilution of 1 in 20). Mix thoroughly.
2. Dispense the suspension into the 384 Assay Plates using Multidrop (50 uL per well). If the volume of cell suspension is large, mix the suspension after dispensing into every other plate.
3. Cover the plates with the lids and place them to the humidified incubator (37° C., 5% CO2) for 48 hours.
1. Transfer 10 uL of supernatants from assay plates to the MSD plates using Cybiwell. Ensure that all wells are covered with the solution. Tap the plate gently, if some of the wells are not covered with the supernatant.
3. Add 10 uL of MSD IL-17 detecting antibody using multidrop (1 ug/mL in D-PBS without Ca^2+ and Mg^2+ (supplied, for example, by Gibco)).
4. Cover the plates with adhesive foil and incubated with shaking for 3 hours at room temperature
7. Add 35 uL of MSD Read Buffer T×2 using multidrop.
8. Read plates on MSD MA6000 reader using the 384 well plate protocol as per manufacturer's instructions.

[2] = molecular target: T1, Human RORγ Ligand Binding Domain (RORγ-LBD) (Homo sapiens, UniProt P51449); assay: Dual Fluorescence Energy Transfer (FRET) assay: co-activator SRC1(2) peptide interaction with RORγ-LBD; type: biochemical; details: RORγ-LBD / SRC1(2) peptide, read-out: mean pIC50 (converted)
T1 construct: His6 with thrombin site) (N); made in house; host or cells: E. coli BL21(DE3), modified pET21a vector
T1 sequence (P51449 263-518): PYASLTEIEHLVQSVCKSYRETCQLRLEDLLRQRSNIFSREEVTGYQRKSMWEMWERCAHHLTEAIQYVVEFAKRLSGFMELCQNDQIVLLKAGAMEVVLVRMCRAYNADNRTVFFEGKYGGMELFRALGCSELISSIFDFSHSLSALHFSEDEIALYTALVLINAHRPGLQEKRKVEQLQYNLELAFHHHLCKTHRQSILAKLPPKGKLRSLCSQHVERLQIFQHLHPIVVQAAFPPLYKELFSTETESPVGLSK
Description: Dual Fluorescence Energy Transfer (FRET) Assay
This assay is based on the knowledge that nuclear receptors interact with cofactors (transcription factors) in a ligand dependent manner. RORγ is a typical nuclear receptor in that it has an AF2 domain in the ligand binding domain (LBD) which interacts with co-activators.
This assay measures ligand-mediated interaction of the co-activator peptide with the purified bacterial-expressed RORγ ligand binding domain (RORγ-LBD) to indirectly assess ligand binding. RORγ has a basal level of interaction with the co-activator SRC1(2) in the absence of ligand, thus, it is possible to find ligands that inhibit or enhance the RORγ/SRC1(2) interaction.
Human RORγ Ligand Binding Domain (RORγ-LBD) was expressed in E. coli strain BL21(DE3) as an amino-terminal polyhistidine tagged fusion protein. DNA encoding this recombinant protein was sub-cloned into a modified pET21a expression vector (Novagen).
Approximately 50 g E. coli cell pellet was resuspended in 300 mL of lysis buffer (30 mM imidazole pH 7.0 and 150 mM NaCl). Cells were lysed by sonication and cell debris was removed by centrifugation for 30 minutes at 20,000 g at 4° C. […] The clarified lysate was loaded onto a column (XK-26) packed with ProBond Nickel Chelating resin (InVitrogen), pre-equilibrated with 30 mM imidazole pH 7.0 and 150 mM NaCl. After washing to baseline absorbance with the equilibration buffer, the column was developed with a gradient from 30 to 500 mM imidazole pH 7.0. Column fractions containing the RORγ-LBD protein were pooled and concentrated to a volume of 5 mLs. The concentrated protein was loaded onto a Superdex 200 column pre-equilibrated with 20 mM Tris-Cl pH 7.2 and 200 mM NaCl. The fractions containing the desired RORγ-LBD protein were pooled together.
Purified RORγ-LBD was buffer exchanged by exhaustive dialysis [3 changes of at least 20 volumes (>8000×)] against PBS [100 mM NaPhosphate, pH 8 and 150 mM NaCl]. […] The modified RORγ-LBD was dialyzed against 2 buffer changes—TBS pH 8.0 containing 5 mM DTT, 2 mM EDTA and 2% sucrose—each at least 20 times of the volume. The modified protein was distributed into aliquots, frozen on dry ice and stored at −80° C. The biotinylated RORγ-LBD was subjected to mass spectrometric analysis to reveal the extent of modification by the biotinylation reagent.
Biotinylated SRC1(2) solution was prepared by adding an appropriate amount of biotinylated SRC1(2) from the 100 uM stock solution to a buffer containing 10 mM of freshly added DTT from solid to give a final concentration of 40 nM. An appropriate amount of Europium labeled Streptavidin was then added to the biotinylated SRC1(2) solution in a tube to give a final concentration of 10 nM. The tube was inverted gently and incubated for 15 minutes at room temperature. Twenty-fold excess biotin from the 10 mM stock solution was added and the tube was inverted gently and incubated for 10 minutes at room temperature.
Biotinylated RORγ-LBD solution was prepared by adding an appropriate amount of biotinylated RORγ-LBD from the stock solution to a buffer containing 10 mM of freshly added DTT from solid to give a final concentration of 40 nM. An appropriate amount of APC labeled Streptavidin was then added to the biotinylated RORγ-LBD solution in a tube to give a final concentration of 20 nM. The tube was inverted gently and incubated for 15 minutes at room temperature. Twenty-fold excess biotin from the 10 mM stock solution was then added and the tube was inverted gently and incubated for 10 minutes at room temperature.
The reaction mixtures were incubated for 5 minutes. […] The plates were incubated for 1 hour and then read on ViewLux in Lance mode for EU/APC.

IC50 [2] | SMILES | IC50 [1]
≤ 15.8 nM | Cc1ccc(N(CC(C)C)S(=O)(=O)c2ccc(OCC3CCOCC3)cc2)c(C)c1 [Example E12] | < 1000 nM
≤ 15.8 nM | Cc1ccc(N(CC(C)C)S(=O)(=O)c2ccc(OCC3CCOCC3)c(C3CC3)c2)c(C)c1 [Example E21, 3-cyclopropyl-N-(2,4-dimethylphenyl)-N-isobutyl-4-((tetrahydro-2H-pyran-4-yl)methoxy)benzenesulfonamide] | < 1000 nM
≤ 15.8 nM | Cc1ccc(N(CC(C)C)S(=O)(=O)c2cc(F)c(OCC3CCOCC3)c(F)c2)c(C)c1 [Example E23] | 
≤ 15.8 nM | Cc1ccc(N(CC(C)C)S(=O)(=O)c2ccc(OCC3CCOCC3)c(C)c2)c(C)c1 [Example E24] | 
≤ 15.8 nM | Cc1ccc(N(CC(C)C)S(=O)(=O)c2ccc(OCC3CCOCC3)cc2C)c(C)c1 [Example E25] | 
≤ 15.8 nM | Cc1ccc(N(CC(C)C)S(=O)(=O)c2ccc(OCC3CCOCC3)cc2O)c(C)c1 [Example E26, N-(2,4-dimethylphenyl)-2-hydroxy-N-isobutyl-4-((tetrahydro-2H-pyran-4-yl)methoxy)benzenesulfonamide] | 
